The target in experiment [1] is T1, baculovirus-expressed ALK (Homo sapiens, UniProt Q9UM73).
T1 construct: host or cells: baculovirus expression system
The experiment can be described thus: ALK Kinase Assay (ELISA-type, time-resolved fluorescence). Conditions: ALK kinase inhibition, 1 μM ATP; read-out: ALK Activity. Format: biochemical. A digest of the protocol:
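Plates coated with phospholipase C-γ substrate (10 μg/mL in TBS); reaction started with 30 ng/ml ALK and run 15 min at 37° C. Phosphorylated substrate detected with Eu-N1-labeled PT66 antibody. IC50 from sigmoidal variable-slope fit of percent inhibition vs log concentration.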

For experiment [2], the target named is T2, c-Met (cytoplasmic domain) (Homo sapiens, UniProt P08581).
T2 construct: 10 ng/mL c-Met (cytoplasmic domain, Invitrogen Corporation #PV3143); purchased Invitrogen Corporation PV3143
T2 sequence (P08581 956-1390 limits assumed): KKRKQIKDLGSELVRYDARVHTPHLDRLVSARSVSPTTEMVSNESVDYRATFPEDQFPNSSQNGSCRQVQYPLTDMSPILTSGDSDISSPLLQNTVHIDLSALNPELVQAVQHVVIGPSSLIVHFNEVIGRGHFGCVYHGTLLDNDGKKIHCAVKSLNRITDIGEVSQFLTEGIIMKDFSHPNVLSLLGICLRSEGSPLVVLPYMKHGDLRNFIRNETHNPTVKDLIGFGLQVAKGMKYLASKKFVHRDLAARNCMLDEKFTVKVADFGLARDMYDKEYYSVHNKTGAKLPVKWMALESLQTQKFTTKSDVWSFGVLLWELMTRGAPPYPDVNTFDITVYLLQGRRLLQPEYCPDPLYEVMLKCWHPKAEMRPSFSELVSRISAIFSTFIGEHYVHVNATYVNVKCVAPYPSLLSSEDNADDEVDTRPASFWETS
The experiment can be described thus: c-Met Kinase Assay (same methods as for ALK, with modifications). Format: biochemical. Conditions: c-Met kinase inhibition, 1 μM ATP; read-out: cMet Activity. In short, it runs like this:
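Europium-labeled PT66 antibody (Eu-N1) detects substrate phosphorylation on wells coated with phospholipase C-γ at 10 μg/mL. The kinase, the cytoplasmic domain of c-Met at 10 ng/mL, starts the reaction, which proceeds 15 minutes at 37° C.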

T1 sequence (Q9UM73 19-1620): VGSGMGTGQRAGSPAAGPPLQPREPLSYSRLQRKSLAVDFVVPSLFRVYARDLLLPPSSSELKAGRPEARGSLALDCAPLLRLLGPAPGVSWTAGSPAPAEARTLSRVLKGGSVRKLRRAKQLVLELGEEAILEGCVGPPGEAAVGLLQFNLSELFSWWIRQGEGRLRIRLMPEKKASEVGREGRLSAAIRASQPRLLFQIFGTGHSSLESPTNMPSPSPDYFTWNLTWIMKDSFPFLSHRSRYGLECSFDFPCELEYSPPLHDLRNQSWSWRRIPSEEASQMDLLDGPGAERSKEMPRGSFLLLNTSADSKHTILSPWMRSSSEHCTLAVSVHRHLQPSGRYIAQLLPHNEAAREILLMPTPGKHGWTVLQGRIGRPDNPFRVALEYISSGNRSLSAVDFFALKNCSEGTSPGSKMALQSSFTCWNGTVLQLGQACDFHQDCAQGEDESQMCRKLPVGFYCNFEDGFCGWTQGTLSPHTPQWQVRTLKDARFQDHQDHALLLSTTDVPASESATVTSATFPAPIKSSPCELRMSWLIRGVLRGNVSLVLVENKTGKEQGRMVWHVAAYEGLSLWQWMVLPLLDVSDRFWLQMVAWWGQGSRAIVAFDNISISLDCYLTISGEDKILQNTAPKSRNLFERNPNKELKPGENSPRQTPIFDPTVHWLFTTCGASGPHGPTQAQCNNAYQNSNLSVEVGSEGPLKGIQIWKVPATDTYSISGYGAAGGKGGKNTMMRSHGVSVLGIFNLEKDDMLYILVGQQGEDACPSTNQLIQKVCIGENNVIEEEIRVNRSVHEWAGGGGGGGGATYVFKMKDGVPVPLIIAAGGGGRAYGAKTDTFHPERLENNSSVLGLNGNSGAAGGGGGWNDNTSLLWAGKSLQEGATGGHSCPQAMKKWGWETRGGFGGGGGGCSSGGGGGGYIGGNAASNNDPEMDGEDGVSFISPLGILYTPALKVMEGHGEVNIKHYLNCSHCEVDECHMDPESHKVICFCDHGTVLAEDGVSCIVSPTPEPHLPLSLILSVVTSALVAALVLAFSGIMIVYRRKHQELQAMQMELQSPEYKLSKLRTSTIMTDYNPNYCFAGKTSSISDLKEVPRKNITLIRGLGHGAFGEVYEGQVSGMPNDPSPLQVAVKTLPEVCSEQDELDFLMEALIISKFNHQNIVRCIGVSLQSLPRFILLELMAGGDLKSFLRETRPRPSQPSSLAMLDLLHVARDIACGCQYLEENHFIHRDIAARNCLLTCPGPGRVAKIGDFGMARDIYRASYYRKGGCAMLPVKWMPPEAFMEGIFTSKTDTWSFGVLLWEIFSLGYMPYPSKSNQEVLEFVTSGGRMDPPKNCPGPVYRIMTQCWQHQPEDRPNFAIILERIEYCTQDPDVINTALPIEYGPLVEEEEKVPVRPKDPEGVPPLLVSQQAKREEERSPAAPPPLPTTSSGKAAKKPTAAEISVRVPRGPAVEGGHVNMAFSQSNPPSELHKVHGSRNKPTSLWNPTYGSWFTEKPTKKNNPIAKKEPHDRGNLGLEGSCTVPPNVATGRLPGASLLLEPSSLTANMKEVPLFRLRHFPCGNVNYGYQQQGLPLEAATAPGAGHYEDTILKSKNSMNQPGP

In the case of `COc1cc(N2CCOCC2)ccc1Nc1nc(Nc2ccc3c(c2)C(C)(C)CCC(=O)N3C)ncc1Cl` [Example 1573, 7-[5-Chloro-4-(2-methoxy-4-morpholin-4-yl-phenylamino)-pyrimidin-2-ylamino]-1,5,5-trimethyl-1,3,4,5-tetrahydro-benzo[b]azepin-2-one], the IC50 in experiment [1] was less than 100 nM; in experiment [2], 1000 to 10000 nM.

In the case of `CCNC(=O)c1cccc(F)c1Nc1nc(Nc2ccc3c(c2)NC(=O)CCC3(C)C)ncc1Cl` [Example 1575, 2-[5-Chloro-2-(5,5-dimethyl-2-oxo-2,3,4,5-tetrahydro-1H-benzo[b]azepin-8-ylamino)-pyrimidin-4-ylamino]-N-ethyl-3-fluoro-benzamide], the IC50 in experiment [1] and in experiment [2] was less than 100 nM each time.

On to `Cc1cccc(C(N)=O)c1Nc1nc(Nc2ccc3c(c2)NC(=O)CCC3(C)C)ncc1Cl` [Example 1577, 2-[5-Chloro-2-(5,5-dimethyl-2-oxo-2,3,4,5-tetrahydro-1H-benzo[b]azepin-8-ylamino)-pyrimidin-4-ylamino]-3-methyl-benzamide], for which the IC50 in experiment [1] lay in the range of 1000 to 10000 nM; in experiment [2], 100 to 1000 nM.

In the case of `CC1(C)CCC(=O)Nc2cc(Nc3ncc(Cl)c(Nc4ccccc4OCC#N)n3)ccc21` [Example 1578, {2-[5-Chloro-2-(5,5-dimethyl-2-oxo-2,3,4,5-tetrahydro-1H-benzo[b]azepin-8-ylamino)-pyrimidin-4-ylamino]-phenoxy}-acetonitrile], the values for the IC50 in experiment [1] and in experiment [2] were less than 100 nM and 100 to 1000 nM, respectively.

For the compound `CCNC(=O)c1cccc(F)c1Nc1nc(Nc2ccc3c(c2)N(CC)C(=O)CCC3(C)C)ncc1Cl` [Example 1579, 2-[5-Chloro-2-(1-ethyl-5,5-dimethyl-2-oxo-2,3,4,5-tetrahydro-1H-benzo[b]azepin-8-ylamino)-pyrimidin-4-ylamino]-N-ethyl-3-fluoro-benzamide], the IC50 in experiment [1] and in experiment [2] was less than 100 nM each time.

As for `CCN1C(=O)CCC(C)(C)c2ccc(Nc3ncc(Cl)c(Nc4ccccc4OCC#N)n3)cc21` [Example 1580, {2-[5-Chloro-2-(1-ethyl-5,5-dimethyl-2-oxo-2,3,4,5-tetrahydro-1H-benzo[b]azepin-8-ylamino)-pyrimidin-4-ylamino]-phenoxy}-acetonitrile], the IC50 in experiment [1] was less than 100 nM; in experiment [2], 100 to 1000 nM.

Consider `COCCN1C(=O)CCC(C)(C)c2ccc(Nc3ncc(Cl)c(Nc4ccccc4OCC#N)n3)cc21` [Example 1582, (2-{5-Chloro-2-[1-(2-methoxy-ethyl)-5,5-dimethyl-2-oxo-2,3,4,5-tetrahydro-1H-benzo[b]azepin-8-ylamino]-pyrimidin-4-ylamino}-phenoxy)-acetonitrile], for which the IC50 is less than 100 nM in experiment [1] and 100 to 1000 nM in experiment [2].

As to `COCCN1C(=O)CCC(C)(C)c2ccc(Nc3ncc(Cl)c(N[C@H]4[C@@H](C(N)=O)[C@@H]5C=C[C@H]4C5)n3)cc21` [Example 1583, (1S,2S,3R,4R)-3-{5-Chloro-2-[1-(2-methoxy-ethyl)-5,5-dimethyl-2-oxo-2,3,4,5-tetrahydro-1H-benzo[b]azepin-8-ylamino]-pyrimidin-4-ylamino}-bicyclo[2.2.1]hept-5-ene-2-carboxylic acid amide], the values for the IC50 in experiment [1] and in experiment [2] were less than 100 nM and 100 to 1000 nM, respectively.

As to `COCCN1C(=O)CCC(C)(C)c2ccc(Nc3ncc(Cl)c(Nc4ccc(N5CCOCC5)cc4OC)n3)cc21` [Example 1584, 8-[5-Chloro-4-(2-methoxy-4-morpholin-4-yl-phenylamino)-pyrimidin-2-ylamino]-1-(2-methoxy-ethyl)-5,5-dimethyl-1,3,4,5-tetrahydro-benzo[b]azepin-2-one], the IC50 in experiment [1] is less than 100 nM; in experiment [2], 1000 to 10000 nM.

Regarding `CNC(=O)c1ccccc1Nc1nc(Nc2ccc3c(c2)N(CCOC)C(=O)CCC3(C)C)ncc1Cl` [Example 1585, 2-{5-Chloro-2-[1-(2-methoxy-ethyl)-5,5-dimethyl-2-oxo-2,3,4,5-tetrahydro-1H-benzo[b]azepin-8-ylamino]-pyrimidin-4-ylamino}-N-methyl-benzamide], the IC50 in experiment [1] was less than 100 nM; in experiment [2], 100 to 1000 nM.

For `CCN1C(=O)CCC(C)(C)c2ccc(Nc3ncc(Cl)c(N[C@H]4[C@@H](C(N)=O)[C@@H]5C=C[C@H]4C5)n3)cc21` [Example 1586, (1S,2S,3R,4R)-3-[5-Chloro-2-(1-ethyl-5,5-dimethyl-2-oxo-2,3,4,5-tetrahydro-1H-benzo[b]azepin-8-ylamino)-pyrimidin-4-ylamino]-bicyclo[2.2.1]hept-5-ene-2-carboxylic acid amide], the IC50 in experiment [1] and in experiment [2] was less than 100 nM each time.

`CCN1C(=O)CCC(C)(C)c2ccc(Nc3ncc(Cl)c(Nc4ccc(N5CCOCC5)cc4OC)n3)cc21` [Example 1587, 8-[5-Chloro-4-(2-methoxy-4-morpholin-4-yl-phenylamino)-pyrimidin-2-ylamino]-1-ethyl-5,5-dimethyl-1,3,4,5-tetrahydro-benzo[b]azepin-2-one]: the IC50 in experiment [1] was less than 100 nM; in experiment [2], 1000 to 10000 nM.

Regarding `CCN1C(=O)CCC(C)(C)c2ccc(Nc3ncc(Cl)c(Nc4ccccc4C(=O)NC)n3)cc21` [Example 1589, 2-[5-Chloro-2-(1-ethyl-5,5-dimethyl-2-oxo-2,3,4,5-tetrahydro-1H-benzo[b]azepin-8-ylamino)-pyrimidin-4-ylamino]-N-methyl-benzamide], the IC50 in experiment [1] and in experiment [2] was less than 100 nM each time.

Turning to `CC(C)N1C(=O)CCC(C)(C)c2ccc(Nc3ncc(Cl)c(N[C@H]4[C@@H](C(N)=O)[C@@H]5C=C[C@H]4C5)n3)cc21` [Example 1590, (1S,2S,3R,4R)-3-[5-Chloro-2-(1-isopropyl-5,5-dimethyl-2-oxo-2,3,4,5-tetrahydro-1H-benzo[b]azepin-8-ylamino)-pyrimidin-4-ylamino]-bicyclo[2.2.1]hept-5-ene-2-carboxylic acid amide], the IC50 in experiment [1] is less than 100 nM; in experiment [2], 1000 to 10000 nM.

For `COc1cc(N2CCOCC2)ccc1Nc1nc(Nc2ccc3c(c2)N(C(C)C)C(=O)CCC3(C)C)ncc1Cl` [Example 1591, 8-[5-Chloro-4-(2-methoxy-4-morpholin-4-yl-phenylamino)-pyrimidin-2-ylamino]-1-isopropyl-5,5-dimethyl-1,3,4,5-tetrahydro-benzo[b]azepin-2-one], the values for the IC50 in experiment [1] and in experiment [2] were less than 100 nM and greater than 10000 nM, respectively.

For `CC(C)CN1C(=O)CCC(C)(C)c2ccc(Nc3ncc(Cl)c(N[C@H]4[C@@H](C(N)=O)[C@@H]5C=C[C@H]4C5)n3)cc21` [Example 1593, (1S,2S,3R,4R)-3-[5-Chloro-2-(1-isobutyl-5,5-dimethyl-2-oxo-2,3,4,5-tetrahydro-1H-benzo[b]azepin-8-ylamino)-pyrimidin-4-ylamino]-bicyclo[2.2.1]hept-5-ene-2-carboxylic acid amide], the IC50 is less than 100 nM in experiment [1] and 1000 to 10000 nM in experiment [2].

Take `COc1cc(N2CCOCC2)ccc1Nc1nc(Nc2ccc3c(c2)N(CC(C)C)C(=O)CCC3(C)C)ncc1Cl` [Example 1594, 8-[5-Chloro-4-(2-methoxy-4-morpholin-4-yl-phenylamino)-pyrimidin-2-ylamino]-1-isobutyl-5,5-dimethyl-1,3,4,5-tetrahydro-benzo[b]azepin-2-one]: the IC50 in experiment [1] was less than 100 nM; in experiment [2], greater than 10000 nM.

Take `CCN1C(=O)CCC(C)(C)c2ccc(Nc3ncc(Cl)c(Nc4ccccc4S(=O)(=O)N(C)C)n3)cc21` [Example 1595, 2-[5-Chloro-2-(1-ethyl-5,5-dimethyl-2-oxo-2,3,4,5-tetrahydro-1H-benzo[b]azepin-8-ylamino)-pyrimidin-4-ylamino]-N,N-dimethyl-benzenesulfonamide]: the IC50 in experiment [1] and in experiment [2] was less than 100 nM in each case.

On to `CNC(=O)c1cccc(F)c1Nc1nc(Nc2ccc3c(c2)N(C(C)=O)CCCC3(C)C)ncc1Cl` [Example 1596, 2-[2-(1-Acetyl-5,5-dimethyl-2,3,4,5-tetrahydro-1H-benzo[b]azepin-8-ylamino)-5-chloro-pyrimidin-4-ylamino]-3-fluoro-N-methyl-benzamide], for which the IC50 was 100 to 1000 nM in experiment [1] and less than 100 nM in experiment [2].

Turning to `CCN1C(=O)CCC(C)(C)c2ccc(Nc3ncc(Cl)c(Nc4ccsc4C(=O)NC)n3)cc21` [Example 1597, 3-[5-Chloro-2-(1-ethyl-5,5-dimethyl-2-oxo-2,3,4,5-tetrahydro-1H-benzo[b]azepin-8-ylamino)-pyrimidin-4-ylamino]-thiophene-2-carboxylic acid methylamide], the IC50 in experiment [1] and in experiment [2] was 1000 to 10000 nM throughout.

As for `COc1cc(N2CCOCC2)ccc1Nc1nc(Nc2ccc3c(c2)N(C(C)=O)CCCC3(C)C)ncc1Cl` [Example 1598, 1-{8-[5-Chloro-4-(2-methoxy-4-morpholin-4-yl-phenylamino)-pyrimidin-2-ylamino]-5,5-dimethyl-2,3,4,5-tetrahydro-benzo[b]azepin-1-yl}-ethanone], the IC50 fell in the range of 100 to 1000 nM in experiment [1] and 1000 to 10000 nM in experiment [2].

Turning to `CNC(=O)c1cccc(F)c1Nc1nc(Nc2ccc3c(c2)N(CCOC)CCCC3(C)C)ncc1Cl` [Example 1599, 2-{5-Chloro-2-[1-(2-methoxy-ethyl)-5,5-dimethyl-2,3,4,5-tetrahydro-1H-benzo[b]azepin-8-ylamino]-pyrimidin-4-ylamino}-3-fluoro-N-methyl-benzamide], the IC50 in experiment [1] and in experiment [2] was less than 100 nM in each case.
